In article PMC4955970, “Stable, synthetic analogs of diadenosine tetraphosphate inhibit rat and human P2X3 receptors and inflammatory pain” (Molecular Pain, 2016):
Values joined by “and” are separate entries in the source; they are usually repeats but may differ in a detail not shown here. Equal values may be shown once. Read-outs that look alike come from different tables or passages of the source.

Tests used:
[1] = target: T1, rat homomeric P2X3 receptors (Rattus norvegicus, UniProt P49654); test: Whole-cell patch clamp on HEK293 cells expressing rat homomeric P2X3R (activation and HAD inhibition of α,β-meATP test pulses); format: cell-based; conditions: for nH of activation curve: partial agonist dose-response
T1 construct: transfected with rat or human full-length P2X3 cDNA subcloned into pIRES2-EGFP; expressed in transfected cells; host or cells: HEK293T (HEK293 in the results)
T1 sequence (P49654 1-397): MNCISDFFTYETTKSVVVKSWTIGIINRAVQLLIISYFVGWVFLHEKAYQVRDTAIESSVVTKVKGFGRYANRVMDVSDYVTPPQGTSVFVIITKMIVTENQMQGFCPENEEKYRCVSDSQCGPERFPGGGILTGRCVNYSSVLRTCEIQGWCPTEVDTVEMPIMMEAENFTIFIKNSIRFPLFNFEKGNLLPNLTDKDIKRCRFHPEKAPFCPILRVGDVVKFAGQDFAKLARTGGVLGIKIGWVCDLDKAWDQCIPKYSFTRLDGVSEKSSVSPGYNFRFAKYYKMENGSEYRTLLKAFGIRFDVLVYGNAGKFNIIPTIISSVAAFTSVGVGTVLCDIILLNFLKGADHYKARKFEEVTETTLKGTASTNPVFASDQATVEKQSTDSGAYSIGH
Experimental: Rat trigeminal, nodose, or dorsal root ganglion (TG, NG, and DRG, respectivley) neurons in culture were prepared as described previously.[46],[47] Neurons were plated on poly-L-lysine (0.2 mg/ml)-coated Petri dishes and cultured for one to two days under an atmosphere containing 5% CO2. Cells were used within two days of plating when they lacked processes. HEK293T cells were prepared as reported previously[32],[48] and transfected with rat or human full-length P2X3 cDNA subcloned into pIRES2-EGFP (Clontech, Mountain View, CA, USA).
TG, NG, DRG, or HEK cells were recorded in the whole-cell configuration while being continuously superfused (at 2 ml/min) with control solution containing (in mM): 152 NaCl, 5 KCl, 1 MgCl2, 2 CaCl2, 10 glucose, and 10 HEPES; pH was adjusted to 7.4 with NaOH and osmolarity was adjusted to 320 mOsM with glucose. […] Responses to selective P2X3R agonist α,β-methylene-ATP (α,β-meATP; resistant to ectoATPase hydrolysis, Sigma-Aldrich) were measured using an EPC-9 amplifier operated by HEKA Patch Master software (HEKA Electronik, Germany). Cells were voltage-clamped at −70 mV. In most cells, series resistance was compensated by 80%. To determine EC50 values, dose-response curves were constructed for α,β-meATP by administering different agonist doses same cells and fitting data to a logistic equation (Origin 8.0, Microcal, Northampton, MA).
Agonists and antagonists were applied (usually for 2 s) via a rapid superfusion system (Rapid Solution Changer RSC-200; BioLogic Science Instruments, Grenoble, France) placed 100 to 150 µm near the cell. The time for the solution exchange across the cell was approximately 30 ms, as judged with liquid junction potential measurements. All chemicals, including enzymes for cell culture, were from Sigma-Aldrich (St. Louis, MO). Culture media were obtained from Invitrogen (Milan, Italy).
The peak amplitudes of the responses were measured using HEKA Patch Master software. For each agonist, dose-response plots were constructed by normalizing data with respect to the maximum response. All data are presented as mean ± SEM (n = the number of cells) with statistical significance assessed by paired t-test (for parametric data) or Mann-Whitney rank-sum test (for nonparametric data). Best fits of data with a sigmoid function were compared with respective control fits using Origin 8.0 software. A value of p < 0.05 was accepted as indicative of statistically significant difference.
Figure 2. Activation and inhibition of rat P2X3 receptors by AppNHppA. Top: Experimental protocol. Test pulses of 10 µM of α,β-meATP were delivered every 2 min. After two control pulses, AppNHppA at different concentrations was applied for 6 min. Example traces of P2X3R-mediated currents in control and after 2 min application of 10 nM (a) and 3 μM (b) of AppNHppA (corresponding to the part of the experimental protocol outlined by a dotted box). (c) The time course of the current inhibition by AppNHppA at different (1 nM–3 μM) concentrations (n = 4–6). Current amplitudes are normalized to control. (d) Dose-response curves for the activation and inhibition of P2X3-mediated currents by AppNHppA.

[2] = tested on: formalin-induced nociceptive behavior; test: Formalin test (spontaneous jerking of the injected hindpaw); format: in vivo, rat; conditions: for in vivo IC50 per animal body weight: calculated from effective concentrations in formalin model; for IC50: locally administered concentration, coinjection with formalin
Experimental: All animal experiments were carried out in accordance with the “Guide for the Care and Use of Laboratory Animals” as adopted by the Bogomoletz Institute of Physiology Clinic of Animal Care and Use. The formalin test experiments were performed on 21-day-old male Wistar rats, weighing 40 ± 5 g according to the method described previously.[49],[50] Briefly, animal was acclimated to an acrylic observation chamber for at least 1 h before the injection of formalin (50 µl of 0.5% solution in 0.9% saline) into the dorsal surface of the right hindpaw. Immediately after the injection, each animal was returned to the observation chamber and its behavioral characteristics were recorded for 45 min. We noticed consistently observed type of response: spontaneous jerking of the injected paw. The number of jerks was measured for each 1-min block, using self-developed computer software.
Figure 8. Effects of subcutaneous Ap4A analogs on pain responses induced by intraplantar (right hindpaw) formalin injection. Rats were subcutaneously injected with formalin solution alone (0.5%, 50 µl, control) or coinjected with the formalin solution and solutions with AppCH2ppA (1 µM–100 µM, 100 µl) or AppNHppA (0.1 µM–100 µM, 100 µl). Age-matched control animals were injected with saline. (a) Time course of the effects of subcutaneous AppCH2ppA (left) and AppNHppA (right) on the number of the spontaneous jerkings of the injected paw. (b) Bar graphs of the effects of AppCH2ppA (b, c) and AppNHppA (d, e) on the integral number of spontaneous jerkings. Measurements were made during the acute phase (0–6 min) and tonic phase (7–45 min) of the formalin response. (f) Dose-response curves for AppCH2ppA (left) and AppNHppA (right) during tonic and acute phases. For each concentration 6–7 rats were used.

Structure (SMILES): Nc1ncnc2c1ncn2[C@@H]1O[C@H](COP(=O)(O)OP(=O)(O)CP(=O)(O)OP(=O)(O)OC[C@H]2O[C@@H](n3cnc4c(N)ncnc43)C(O)C2O)C(O)C1O (stereo partly drawn) [AppCH2ppA, diadenosine 5′,5′′′-P^1,P^4-(β,γ-methylene)tetraphosphate]
- depression of P2X3R currents at high rate of activation ([1]; 1 µM, α,β-meATP pulses every 30 s): 81 ± 3%
- depression of P2X3R currents at low rate of activation ([1]; 1 µM, α,β-meATP pulses every 2 min): 61.3 ± 5%
- IC50 ([1]; 6 min after drug application, test pulse 10 µM α,β-meATP, read-out: IC50 of HAD inhibition of P2X3R currents): 0.55 ± 0.2 µM
- EC50 ([1]; HEK293 rat P2X3R, read-out: EC50 of partial agonist P2X3R activation): 9.3 ± 1.7 µM
- nH of activation curve [1]: 2.27 ± 0.56
- in vivo IC50 per animal body weight [2]: 0.72 nmol/kg and 0.61 µg/kg
- IC50 ([2]; acute phase, read-out: IC50 in the acute phase of formalin test): 34.7 ± 13.2 µM
- IC50 ([2]; tonic phase 7–45 min, read-out: IC50 in the tonic phase of formalin test): 0.29 ± 0.05 µM

Structure (SMILES): Nc1ncnc2c1ncn2[C@@H]1O[C@H](COP(=O)(O)OP(=O)(O)NP(=O)(O)OP(=O)(O)OC[C@H]2O[C@@H](n3cnc4c(N)ncnc43)[C@H](O)[C@@H]2O)[C@@H](O)[C@H]1O [AppNHppA, diadenosine 5′,5′′′-P^1,P^4-(β,γ-imido)tetraphosphate]
- IC50 [1]: 0.2 ± 0.04 µM
- amplitude of α,β-meATP test response after application ([1]; 10 nM, test pulse 10 µM α,β-meATP, 2-min interval): almost unchanged
- reduction of α,β-meATP test responses (HAD effect) ([1]; 100 nM, below activation threshold): 38.2 ± 8.5%
- inhibition of α,β-meATP test responses (HAD effect) ([1]; 3 µM, test pulse 10 µM α,β-meATP, 2-min interval): complete inhibition
- induction of membrane currents ([1]; 0.1 or 1 µM, HEK293 rat homomeric P2X3R): not to induce membrane currents
- currents generated ([1]; 10 or 100 µM, HEK293 rat homomeric P2X3R): small and slowly desensitizing currents
- EC50 ([1]; EC50 of activation (summary restatement), rat P2X3R, summary statement): 41 µM
- EC50 ([1]; EC50 of partial agonist P2X3R activation, HEK293 rat P2X3R): 41.6 ± 1.3 µM
- inhibitory action in presence of G-protein inhibitor GDP-β-S ([1]; GDP-β-S 500 µM introduced into cells): remained unchanged
- inhibition at 1 µM ([1]; HEK293, read-out: inhibitory action on P2X3 receptors with GDP-β-S in intracellular solution): 23.9 ± 5.24%
- inhibition at 1 µM ([1]; HEK293, read-out: inhibitory action on P2X3 receptors with GTP in intracellular solution): 23.4 ± 2.01%
- agonist type at homomeric P2X3Rs ([1]; compared with full agonist α,β-meATP): only a partial agonist
- nH of activation curve [1]: 1.58 ± 0.05
- EC50/IC50 ratio (activation/inhibition index) ([1]; rat P2X3R): 205
- current response relative to response induced by 10 µM α,β-meATP ([1]; saturating 1 mM, same cell): 41.2 ± 13%
- IC50 ([2]; Rattus norvegicus, acute phase, read-out: IC50 in the acute phase of formalin test): > 100 µM
- IC50 ([2]; Rattus norvegicus, tonic phase 7–45 min, read-out: IC50 in the tonic phase of formalin test): 0.11 ± 0.02 µM
- in vivo IC50 per animal body weight [2]: 0.28 nmol/kg and 0.23 µg/kg
